Source: patent publication US11007206B2, “Cyclic boronic acid ester derivatives and therapeutic uses thereof” (Melinta Subsidiary Corp., priority 2012, dated 2021)
“And” between values parts separate entries of the source, which are not always exact repeats. Equal entries are not always repeated. Where two headings read alike, the source gives them in different places.

Test: Plasma pharmacokinetics of Compound I after single intraperitoneal dose in Swiss-Webster mice (Example 1)
Format: in vivo
Settings: for concentration at 4 h: samples m.p. 10.x = 10th time point (4.0 h)
Protocol: Example 1 provides a summary of three pharmacokinetic studies Compound I conducted in Swiss-webster mice. The pharmacokinetics of 5 mg/kg, 15 mg/kg and 50 mg/kg of Compound I via the intraperitoneal route were discussed.
Compound I was prepared using the method described in the U.S. Publication 2012/0040932 A1. 100 mg of Compound I was dissolved in 30% 1N NaOH to ˜pH 5.0 as a stock solution. Compound I was further diluted in 0.9% saline to achieve target concentrations.
The specifications for animals used on this study were as follows: • Species: Mouse • Strain: CFW (Swiss) • Gender: Female • Source: Harlan Laboratories (Livermore, Calif.) • Number of Animals: 33 for each dose • Body Weight Range: 18-22 g at the start of the study
After acclimation, mice were administered a single intraperitoneal dose of Compound I at 5, 15, and 50 mg/kg. Groups of three mice were sacrificed at 0.08, 0.16, 0.25, 0.33, 0.5, 0.75, 1.0, 2.0, 3.0, and 4.0 h after dosing. Blood samples (one sample per animal) were collected by cardiac puncture in a heparin containing tube. Blood samples were centrifuged within 5 min of collection at 12000 g for 5 min to obtain plasma. The plasma samples were stored on −80° C. until analyzed.
Compound I standard curves were prepared in plasma from 0.1 to 100 μg/mL. 50 μl aliquots of sample were placed in 1.5 mL microcentrifuge tubes. 20 μl of Compound II (10 μg/mL) was added as internal standard to each sample or standard. 20 μl of 30% trichloroacetic acid was then added to each sample or standard. The samples were mixed using a vortex mixer centrifuged for 10 min at 15,000 RPM using a tabletop centrifuge. The supernatant (approx. […]) was removed and added to 100 μl of water in a 96-well plate. The samples were mixed again using a vortex mixer. 10 μl of each sample was injected onto an HPLC-MS for quantification.
The HPLC-MS conditions for plasma analysis are as follows: • Column: Phenomenex Fusion-RP or equivalent reversed-phase column, 5 um, 50×2 mm. • Flow rate: 0.6 mL/min. • Mobile phase A: 0.1% formic acid in water. • Mobile phase B: 0.1% formic acid in acetonitrile. • Gradient: 5-60% B in 1.5 min. • Mass spectrometer: Negative ion mode with electrospray ionization. • MS/MS: Compound I-Q1-m/e=296, Q3-m/e=234. • Compound II-Q1-m/e=331, Q3-m/e=201.
Plasma concentrations were fit using a one compartment IV infusion model (WinNonlinVersion 5.3, Pharsight Corp, and Mountain View, Calif.).

[1] = Swiss-Webster mice, plasma, 5 mg/kg intraperitoneal
[2] = Swiss-Webster mice, plasma, 15 mg/kg intraperitoneal
[3] = Swiss-Webster mice, plasma, 50 mg/kg intraperitoneal
[4] = female, CFW (Swiss-Webster), mouse, ip, Swiss-Webster mice, plasma, 5 mg/kg intraperitoneal
[5] = female, CFW (Swiss-Webster), mouse, ip, Swiss-Webster mice, plasma, 15 mg/kg intraperitoneal
[6] = female, CFW (Swiss-Webster), mouse, ip, Swiss-Webster mice, plasma, 50 mg/kg intraperitoneal

**Q.** Which Linearity of pharmacokinetics (Swiss-Webster mice, dose range of 5 to 50 mg/kg intraperitoneal) does the source give for `O=C(O)C[C@@H]1CC[C@H](NC(=O)Cc2cccs2)B(O)O1` [Compound I] here?
**A.** Its Linearity of pharmacokinetics is “linear PK”.

**Q.** What about the AUC [1] of the same compound?
**A.** The AUC was 3100 ng·h/mL.

**Q.** And the Cl [1]?
**A.** Its Cl is 26.8 mL/min/kg.

**Q.** What about the AUC [2] of the same compound?
**A.** The AUC was 8300 ng·h/mL.

**Q.** What about the Cl [2] of the same compound?
**A.** Its Cl is 30 mL/min/kg.

**Q.** What about the AUC [3] of the same compound?
**A.** Its AUC is 31400 ng·h/mL.

**Q.** What about the Cl [3] of the same compound?
**A.** Its Cl is 26.7 mL/min/kg.

**Q.** What about the Cmax [4] of the same compound?
**A.** The Cmax was 8260 ng/mL.

**Q.** What about the half-life [4] of the same compound?
**A.** Its half-life is 9.6 min.

**Q.** What about the Cmax [5] of the same compound?
**A.** The Cmax was 19500 ng/mL.

**Q.** And the half-life [5]?
**A.** The half-life was 12 min.

**Q.** What about the Cmax [6] of the same compound?
**A.** Its Cmax is 67100 ng/mL.

**Q.** And the half-life [6]?
**A.** The half-life was 15 min.

**Q.** And the concentration at 0.08 h (female, CFW (Swiss-Webster), mouse, plasma, ip, 5 mg/kg, mouse plasma, 5 mg/kg intraperitoneal, samples m.p. 1.x = 1st time point (0.08 h), individual animals, read-out: Calc. Conc. (plasma concentration))?
**A.** The concentration at 0.08 h was 5580 ng/mL.

**Q.** And the concentration at 0.5 h (female, CFW (Swiss-Webster), mouse, plasma, ip, 5 mg/kg, mouse plasma, 5 mg/kg intraperitoneal, samples m.p. 5.x = 5th time point (0.5 h), individual animals, read-out: Calc. Conc. (plasma concentration))?
**A.** The concentration at 0.5 h was 1550 ng/mL.

**Q.** And the concentration at 4 h (female, CFW (Swiss-Webster), mouse, plasma, ip, 5 mg/kg, mouse plasma, 5 mg/kg intraperitoneal, individual animals, read-out: Calc. Conc. (plasma concentration))?
**A.** The concentration at 4 h was 3.71 ng/mL.

**Q.** What about the concentration at 0.08 h (female, CFW (Swiss-Webster), mouse, plasma, ip, 15 mg/kg, mouse plasma, 15 mg/kg intraperitoneal, samples m.p. 1.x = 1st time point (0.08 h), individual animals, read-out: Calc. Conc. (plasma concentration)) of the same compound?
**A.** The concentration at 0.08 h was 16700 ng/mL.

**Q.** And the concentration at 0.16 h (female, CFW (Swiss-Webster), mouse, plasma, ip, 15 mg/kg, mouse plasma, 15 mg/kg intraperitoneal, samples m.p. 2.x = 2nd time point (0.16 h), individual animals, read-out: Calc. Conc. (plasma concentration))?
**A.** Its concentration at 0.16 h is 15500 ng/mL.

**Q.** What about the concentration at 2 h (female, CFW (Swiss-Webster), mouse, plasma, ip, 15 mg/kg, mouse plasma, 15 mg/kg intraperitoneal, samples m.p. 8.x = 8th time point (2.0 h), individual animals, read-out: Calc. Conc. (plasma concentration)) of the same compound?
**A.** The concentration at 2 h was 126 ng/mL.

**Q.** And the concentration at 4 h (female, CFW (Swiss-Webster), mouse, plasma, ip, 15 mg/kg, mouse plasma, 15 mg/kg intraperitoneal, individual animals, read-out: Calc. Conc. (plasma concentration))?
**A.** The concentration at 4 h was less than 0 ng/mL.

**Q.** And the concentration at 0.08 h (female, CFW (Swiss-Webster), mouse, plasma, ip, 50 mg/kg, mouse plasma, 50 mg/kg intraperitoneal, samples m.p. 1.x = 1st time point (0.08 h), individual animals, read-out: Calc. Conc. (plasma concentration))?
**A.** The concentration at 0.08 h was 34800 ng/mL.

**Q.** What about the concentration at 0.16 h (female, CFW (Swiss-Webster), mouse, plasma, ip, 50 mg/kg, mouse plasma, 50 mg/kg intraperitoneal, samples m.p. 2.x = 2nd time point (0.16 h), 5x dil., individual animals, read-out: Calc. Conc. (plasma concentration)) of the same compound?
**A.** Its concentration at 0.16 h is 58900 ng/mL.

**Q.** And the concentration at 0.25 h (female, CFW (Swiss-Webster), mouse, plasma, ip, 50 mg/kg, mouse plasma, 50 mg/kg intraperitoneal, samples m.p. 3.x = 3rd time point (0.25 h), 5x dil., individual animals, read-out: Calc. Conc. (plasma concentration))?
**A.** Its concentration at 0.25 h is 64200 ng/mL.

**Q.** And the concentration at 0.75 h (female, CFW (Swiss-Webster), mouse, plasma, ip, 50 mg/kg, mouse plasma, 50 mg/kg intraperitoneal, samples m.p. 6.x = 6th time point (0.75 h), individual animals, read-out: Calc. Conc. (plasma concentration))?
**A.** Its concentration at 0.75 h is 19100 ng/mL.

**Q.** And the concentration at 3 h (female, CFW (Swiss-Webster), mouse, plasma, ip, 50 mg/kg, mouse plasma, 50 mg/kg intraperitoneal, samples m.p. 9.x = 9th time point (3.0 h), individual animals, read-out: Calc. Conc. (plasma concentration))?
**A.** Its concentration at 3 h is 181 ng/mL.

**Q.** And the “Calc. Conc. (plasma concentration)” value (mouse plasma, 5 mg/kg intraperitoneal, samples m.p. 1.x = 1st time point (0.08 h), individual animals, 5 mg/kg)?
**A.** Its value is 5.77 µg/mL and 4.84 µg/mL.

**Q.** And the “Calc. Conc. (plasma concentration)” value (mouse plasma, 5 mg/kg intraperitoneal, samples m.p. 2.x = 2nd time point (0.16 h), individual animals, 5 mg/kg)?
**A.** Its value is 9.68 µg/mL and 7.41 µg/mL and 3.49 µg/mL.

**Q.** And the “Calc. Conc. (plasma concentration)” value (mouse plasma, 5 mg/kg intraperitoneal, samples m.p. 3.x = 3rd time point (0.25 h), individual animals, 5 mg/kg)?
**A.** Its value is 9.08 µg/mL and 7.43 µg/mL and 3.8 µg/mL.

**Q.** And the “Calc. Conc. (plasma concentration)” value (mouse plasma, 5 mg/kg intraperitoneal, samples m.p. 4.x = 4th time point (0.33 h), individual animals, 5 mg/kg)?
**A.** Its value is 3.37 µg/mL and 1.01 µg/mL and 3.73 µg/mL.

**Q.** And the “Calc. Conc. (plasma concentration)” value (mouse plasma, 5 mg/kg intraperitoneal, samples m.p. 5.x = 5th time point (0.5 h), individual animals, 5 mg/kg)?
**A.** Its value is 1.87 µg/mL and 1.31 µg/mL.

**Q.** What about the “Calc. Conc. (plasma concentration)” value (mouse plasma, 5 mg/kg intraperitoneal, samples m.p. 6.x = 6th time point (0.75 h), individual animals, 5 mg/kg) of the same compound?
**A.** Its value is 0.110 µg/mL and 0.872 µg/mL and 0.461 µg/mL.

**Q.** And the “Calc. Conc. (plasma concentration)” value (mouse plasma, 5 mg/kg intraperitoneal, samples m.p. 7.x = 7th time point (1.0 h), individual animals, 5 mg/kg)?
**A.** Its value is 0.551 µg/mL and 0.213 µg/mL and 0.457 µg/mL.

**Q.** What about the “Calc. Conc. (plasma concentration)” value (mouse plasma, 5 mg/kg intraperitoneal, samples m.p. 8.x = 8th time point (2.0 h), individual animals, 5 mg/kg) of the same compound?
**A.** Its value is 0.0898 µg/mL and 0.0404 µg/mL and 0.0440 µg/mL.
